Experimental data published in patent publication US20120232062A1, “AZAINDAZOLES TO TREAT FLAVIVIRIDAE VIRUS INFECTION” (EIGER BIOPHARMACEUTICALS, INC., priority 2009, published 2012).

The compounds below were run on HCV genotype 1b (assay: HCV 1b replicon luciferase assay). Conditions: Hepatitis C virus, Huh-7, 48 h, Table 1; Huh7 HCV 1b replicon, luciferase reporter, 48 hours; read-out: 1b EC50.
Format: cell-based
How it was run: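 Luminescence (Steady-Glo) served as the replication read-out after 48 h compound exposure of 1b replicon-luciferase Huh7 cells seeded at 10k/well. Dosing used 5-fold serial dilutions, 10 concentrations, top 25 μM final, 0.1% DMSO, duplicates.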
With Cn1nc(-c2cnc(C(=O)NC3CCCNC3)s2)c2ccc(N3CCCCCC3)nc21 (stereo not drawn) [compound 1128] the EC50 was 490 nM. With Cn1nc(-c2cnc(C(=O)NCC3CCCNC3)s2)c2ccc(N3CCCCCC3)nc21 (stereo not drawn) [compound 1130] the EC50 was 990 nM. CC1CC(NC(=O)c2nn(C)c3nc(N4CCCCCCC4)ccc23)CCN1CC1CCCCC1 (stereo not drawn) [compound 1151] was tested, and the EC50 was 1400 nM. CC1CC(NC(=O)c2nn(C)c3nc(N4CCCCCCC4)ccc23)CCN1Cc1ccc(OC(F)F)cc1 (stereo not drawn) [compound 1152] was tested, and the EC50 was 6100 nM. For CC1CC(NC(=O)c2nn(C)c3nc(N4CCCCCCC4)ccc23)CCN1CCCC1CCCCC1 (stereo not drawn) [compound 1153], the EC50 was 1500 nM. For Cn1nc(CCCN2CCCCC2)c2ccc(N3CCCCCCC3)nc21 [compound 1172], the EC50 was 1500 nM. With CCN(c1ccc2c(C(=O)NC3CCN(CC4CCCCC4)CC3)nn(C)c2n1)C1CCCCCC1 [compound 1183] the EC50 was 746 nM. Cn1nc(C(=O)NC2CCN(CC3CCCCC3)CC2)c2ccc(N(Cc3ccccc3)C3CCCCCC3)nc21 [compound 1184] showed an EC50 of 168 nM. For Clc1ccc(Cn2nc(COCCN3CCCCC3)c3ccc(N4CCCCCCC4)nc32)cc1 [compound 1204], the EC50 was 5400 nM. Clc1ccc(Cn2nc(COCCCN3CCCCC3)c3ccc(N4CCCCCCC4)nc32)cc1 [compound 1205] showed an EC50 of 4000 nM. Cn1nc(C(=O)NC2CCN(CC3CC3)CC2)c2ccc(N3CCCCCCC3)nc21 [compound 1222] showed an EC50 of 3200 nM. Cn1nc(C(=O)NC2CCN(CC(F)F)CC2)c2ccc(N3CCCCCCC3)nc21 [compound 1223] gave an EC50 of 2800 nM. Cc1ccc(CN2CCC(NC(=O)c3nn(C)c4nc(N5CCCCCCC5)ccc34)CC2)cc1 [compound 1224] gave an EC50 of 2700 nM. With CC(C)CCN1CCC(NC(=O)c2nn(C)c3nc(N4CCCCCCC4)ccc23)CC1C (stereo not drawn) [compound 1233] the EC50 was 5300 nM. In the case of CCN1CCC(NC(=O)c2nn(C)c3nc(N4CCCCCCC4)ccc23)CC1C (stereo not drawn) [compound 1234], the EC50 is reported as 1900 nM. For CCCN1CCC(NC(=O)c2nn(C)c3nc(N4CCCCCCC4)ccc23)CC1 [compound 1235], the EC50 was 3400 nM. Compound CC(C)CN1CCC(NC(=O)c2nn(C)c3nc(N4CCCCCCC4)ccc23)CC1 [compound 1236] has an EC50 of 6300 nM. Work on Cn1nc(-c2cnc(C3CCCNC3)s2)c2ccc(N3CCCCCCC3)nc21 (stereo not drawn) [compound 1248] yielded an EC50 of 4100 nM. Cn1nc(-c2cnc(C(=O)NCc3ccccc3)s2)c2ccc(N3CCCCCCC3)nc21 [compound 1250] was tested, and the EC50 was 1400 nM. In the case of Cn1nc(-c2cnc(C(=O)NCC3CCCCC3)s2)c2ccc(N3CCCCCCC3)nc21 [compound 1251], the EC50 is reported as 1000 nM. For Cn1nc(-c2cnc(C(=O)NC3CCCCC3)s2)c2ccc(N3CCCCCCC3)nc21 [compound 1254], the EC50 was 1400 nM. Cn1nc(-c2cnc(C3CCCN(CC4CCCCC4)C3)s2)c2ccc(N3CCCCCCC3)nc21 (stereo not drawn) [compound 1255] was tested, and the EC50 was 3000 nM. For Cn1nc(-c2cnc(C3CCCN(Cc4ccc(OC(F)F)cc4)C3)s2)c2ccc(N3CCCCCCC3)nc21 (stereo not drawn) [compound 1257], the EC50 was 2400 nM. For Cn1nc(-c2cnc(C(=O)NCC3CCCN(CC(F)F)C3)s2)c2ccc(N3CCCCCCC3)nc21 (stereo not drawn) [compound 1261], the EC50 was 1800 nM. In the case of Cn1nc(-c2cnc([C@@H]3CCCN3CC3CCCCC3)s2)c2ccc(N3CCCCCCC3)nc21 [compound 1264], the EC50 is reported as 2400 nM. Cn1nc(-c2cnc(C3CCN(CC4CCCCC4)C3)s2)c2ccc(N3CCCCCCC3)nc21 (stereo not drawn) [compound 1268] gave an EC50 of 580 nM. With Cn1nc(-c2cnc(C3CCN(CC(F)F)C3)s2)c2ccc(N3CCCCCCC3)nc21 (stereo not drawn) [compound 1269] the EC50 was 4600 nM. Work on Cn1nc(-c2nnc(C3CCCNC3)o2)c2ccc(N3CCCCCCC3)nc21 (stereo not drawn) [compound 1271] yielded an EC50 of 3200 nM. Cn1nc(-c2nnc(C3CCCN(CC4CCCCC4)C3)o2)c2ccc(N3CCCCCCC3)nc21 (stereo not drawn) [compound 1272] gave an EC50 of 940 nM. Cn1nc(-c2nnc(C3CCCN(CC(F)F)C3)o2)c2ccc(N3CCCCCCC3)nc21 (stereo not drawn) [compound 1273] gave an EC50 of 4800 nM. Cn1nc(C(=O)NC2CCN(CCN3CCCC3)CC2)c2ccc(N3CCCCCCC3)nc21 [compound 1296] gave an EC50 of 500 nM. Cn1nc(C(=O)NC2CCN(CCC3CCCCC3)CC2)c2ccc(N3CCCCCCC3)nc21 [compound 1299] gave an EC50 of 310 nM. Cn1nc(C(=O)NC2CCN(CCC(F)(F)F)CC2)c2ccc(N3CCCCCCC3)nc21 [compound 1301] showed an EC50 of 5100 nM. CC(C)c1ccc(CN(c2ccc3c(C(=O)NC4CCN(CCN5CCCCC5)CC4)nn(C)c3n2)C2CCCCCC2)cc1 [compound 1303] gave an EC50 of 660 nM. For CC(c1ccncc1)N1CCC(NC(=O)c2nn(C)c3nc(N4CCCCCCC4)ccc23)CC1 (stereo not drawn) [compound 1304], the EC50 was 1400 nM. Work on Cn1nc(C(=O)NC2CCN(CC3CCCC3)CC2)c2ccc(N3CCCCCCC3)nc21 [compound 1305] yielded an EC50 of 490 nM. Compound CC(C1CC1)N1CCC(NC(=O)c2nn(C)c3nc(N4CCCCCCC4)ccc23)CC1 (stereo not drawn) [compound 1311] has an EC50 of 970 nM. With CC(c1cccc(C(F)(F)F)c1)N1CCC(NC(=O)c2nn(C)c3nc(N4CCCCCCC4)ccc23)CC1 (stereo not drawn) [compound 1312] the EC50 was 2700 nM. Cn1nc(-c2cnc(C(=O)NC3CCCN(CCN4CCCCC4)C3)s2)c2ccc(N3CCCCCCC3)nc21 (stereo not drawn) [compound 1316] showed an EC50 of 550 nM. Cn1nc(-c2cnc(C(=O)NC3CCCN(CC(F)F)C3)s2)c2ccc(N3CCCCCCC3)nc21 (stereo not drawn) [compound 1322] showed an EC50 of 1100 nM. Cn1nc(-c2nnc(C3CCN(CC(F)F)CC3)o2)c2ccc(N3CCCCCCC3)nc21 [compound 1323] gave an EC50 of 4400 nM. In the case of Cn1nc(-c2nnc(C3CCCCN3CC3CCCCC3)o2)c2ccc(N3CCCCCCC3)nc21 (stereo not drawn) [compound 1324], the EC50 is reported as 660 nM. Cn1nc(-c2nnc(C3CCCCN3CCN3CCCCC3)o2)c2ccc(N3CCCCCCC3)nc21 (stereo not drawn) [compound 1326] showed an EC50 of 4800 nM. Work on O=C(NC1CCCNC1)c1nn(-c2ccccc2)c2nc(N3CCCCCC3)ccc12 (stereo not drawn) [compound 1349] yielded an EC50 of 5000 nM. In the case of O=C(NC1CCNCC1)c1nn(-c2ccccc2)c2nc(N3CCCCCC3)ccc12 [compound 1350], the EC50 is reported as 3800 nM. Work on Cn1nc(-c2nnc(C3CCNC3)o2)c2ccc(N3CCCCCCC3)nc21 (stereo not drawn) [compound 1363] yielded an EC50 of 2700 nM. Cn1nc(-c2nnc([C@@H]3CCCN3CCN3CCCCC3)o2)c2ccc(N3CCCCCCC3)nc21 [compound 1364] showed an EC50 of 2200 nM. With Cn1nc(-c2nnc(C3CCN(CC4CCCCC4)C3)o2)c2ccc(N3CCCCCCC3)nc21 (stereo not drawn) [compound 1365] the EC50 was 2600 nM. Cn1nc(-c2nnc(C3CCN(CC(F)F)C3)o2)c2ccc(N3CCCCCCC3)nc21 (stereo not drawn) [compound 1366] was tested, and the EC50 was 4000 nM. For Cn1nc(-c2nnc(C3CCN(CCN4CCCCC4)C3)o2)c2ccc(N3CCCCCCC3)nc21 (stereo not drawn) [compound 1368], the EC50 was 4800 nM. Cn1nc(-c2nnc(C3CCN(CCN4CCCCC4)CC3)o2)c2ccc(N3CCCCCCC3)nc21 [compound 1373] showed an EC50 of 630 nM. CCCCCCNc1ccc2c(C(=O)NC3CCCNC3)nn(-c3cccc(Cl)c3C)c2n1 (stereo not drawn) [compound 1378] showed an EC50 of 2600 nM. C[C@@H]1CCCN1CCN1CCC(NC(=O)c2nn(C)c3nc(N4CCCCCC4)ccc23)CC1 [compound 1424] showed an EC50 of 790 nM. COCC1CCCCN1CCN1CCC(NC(=O)c2nn(C)c3nc(N4CCCCCC4)ccc23)CC1 (stereo not drawn) [compound 1426] gave an EC50 of 450 nM. With COCC1CCCN1CCCc1nn(C)c2nc(N3CCCCCCC3)ccc12 (stereo not drawn) [compound 1453] the EC50 was 2800 nM. With CC1CCCCN1CCCc1nn(C)c2nc(N3CCCCCCC3)ccc12 (stereo not drawn) [compound 1454] the EC50 was 1600 nM.

Same assay, conditions: Table 1; Huh7 HCV 1b replicon, luciferase reporter, 48 hours; read-out: 1b EC50
Compound Cn1nc(C(=O)NC2CCN(CC3CC3)CC2)c2ccc(N3CCCCCCC3)nc21 [compound 1300] has an EC50 of 2700 nM.
